This is an account of results in PubChem BioAssay (NCI).

Some test systems named below: HCT-15 colon; COLO 205 colon; HL-60(TB) leukemia; NCI-H23 lung; CAKI-1 renal; SK-MEL-5 melanoma; BT-549 breast; RXF 393 renal; CCRF-CEM leukemia; NCI-H522 lung.
Holding throughout (assay): NCI tumour cell line growth inhibition, 48 h

Where “and” joins values, the source holds several entries; their conditions need not be identical. Equal values may be shown once.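 How tested: cells in 96-well plates exposed to compound for 48 hours at five concentrations. Here, GI50 denotes the concentration required for 50% inhibition of growth. TGI is the concentration that stops growth completely.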

As to `CC(C)OC(=S)Nc1ccc(Cl)c(/C=N/OC(C)(C)C)c1`, the TGI was found to be 32400 nM in the assay on HCT-15 colon; 32300 nM in the assay with COLO 205 colon; 37800 nM in the assay on HL-60(TB) leukemia; 39400 nM in the assay on NCI-H23 lung; 32800 nM with CAKI-1 renal; 31800 nM in the assay on SK-MEL-5 melanoma. In addition, the TGI with BT-549 breast turned out to be 34100 nM; in the assay on RXF 393 renal it was 30900 nM; in the assay on CCRF-CEM leukemia, 36800 nM; with NCI-H522 lung, 30800 nM.
As for `COc1ccc(-c2cncn2-c2cc(OC)c(OC)c(OC)c2)cc1`, the GI50 with HCT-15 colon was 170 nM; in the assay on COLO 205 colon, 103 nM; with HL-60(TB) leukemia it was 1720 nM; in the assay with NCI-H23 lung, 659 nM; with CAKI-1 renal it was 51 nM; in the assay on SK-MEL-5 melanoma it was 52.3 nM. In addition, the GI50 with BT-549 breast was 249 nM; with RXF 393 renal it was 448 nM; in the assay on CCRF-CEM leukemia it was 843 nM; with NCI-H522 lung it was 19 nM. The TGI in the assay with HCT-15 colon was > 91900 nM; in the assay on COLO 205 colon, 9700 nM; in the assay on HL-60(TB) leukemia, 3590 nM; in the assay on NCI-H23 lung it was > 43700 nM; in the assay with CAKI-1 renal it was 1850 nM; with SK-MEL-5 melanoma, 5250 nM. Moreover, the TGI with BT-549 breast was 52000 nM; in the assay on RXF 393 renal it was 21300 nM; with CCRF-CEM leukemia, 18500 nM; with NCI-H522 lung it was 283 nM.
As for `COc1ccc(-c2cc3c(C)nc(N)nc3n(C3CCC(OCCO)CC3)c2=O)cn1` (stereo unspecified), the GI50 with HCT-15 colon was 106 nM and 97.4 nM; with COLO 205 colon, 88.2 nM and 137 nM; in the assay on HL-60(TB) leukemia, 34.5 nM and 94.1 nM; in the assay with NCI-H23 lung it was 156 nM and 97.7 nM; in the assay on CAKI-1 renal it was 37.9 nM and 86.6 nM; with SK-MEL-5 melanoma, 144 nM and 103 nM. The GI50 with BT-549 breast is 62.2 nM and 31.7 nM; in the assay with RXF 393 renal, 40.3 nM and 46.7 nM; in the assay on CCRF-CEM leukemia, 134 nM and 80.3 nM; with NCI-H522 lung, 52 nM and 33.7 nM. The TGI with HCT-15 colon was > 6210 nM and 5110 nM; in the assay with COLO 205 colon, 874 nM and 1140 nM; in the assay on HL-60(TB) leukemia, > 10000 nM and 6380 nM; in the assay with NCI-H23 lung, > 6910 nM; in the assay with CAKI-1 renal it was 380 nM and 575 nM; in the assay with SK-MEL-5 melanoma, 543 nM and 650 nM. Moreover, the TGI in the assay on BT-549 breast is 666 nM and 359 nM; in the assay with RXF 393 renal, 289 nM and 309 nM; with CCRF-CEM leukemia it was > 23800 nM; in the assay on NCI-H522 lung, 800 nM and 386 nM.
On to `CSc1nc2nc3c(nc2c(=O)n1C)C(=O)c1ccccc1C3=O`, for which the GI50 with HCT-15 colon is 164 nM; with COLO 205 colon, 173 nM; in the assay on HL-60(TB) leukemia it was 209 nM; in the assay on NCI-H23 lung, 142 nM; with CAKI-1 renal, 300 nM; with SK-MEL-5 melanoma it was 16.9 nM. The GI50 in the assay on BT-549 breast was 159 nM; in the assay with RXF 393 renal it was 253 nM; in the assay with CCRF-CEM leukemia, 259 nM; in the assay on NCI-H522 lung, 160 nM. For the same molecule, the TGI with HCT-15 colon is 429 nM; in the assay with COLO 205 colon, 357 nM; with HL-60(TB) leukemia, 514 nM; with NCI-H23 lung it was 422 nM; in the assay with CAKI-1 renal, 1000 nM; in the assay on SK-MEL-5 melanoma, 32.2 nM. Further, the TGI with BT-549 breast worked out at 305 nM; in the assay on RXF 393 renal it was 819 nM; with CCRF-CEM leukemia it was 794 nM; in the assay with NCI-H522 lung, 332 nM.
On to `CN=C1C=CC(=C(c2ccc(N(C)C)cc2)c2ccc(N(C)C)cc2)C=C1`, for which the GI50 in the assay with HCT-15 colon is 367 nM; in the assay with COLO 205 colon it was 184 nM; in the assay with HL-60(TB) leukemia it was 217 nM; in the assay with NCI-H23 lung it was 224 nM; in the assay with CAKI-1 renal, 448 nM; in the assay with SK-MEL-5 melanoma it was 182 nM. The GI50 in the assay with BT-549 breast is 265 nM; in the assay with RXF 393 renal it was 207 nM; with CCRF-CEM leukemia, 256 nM; in the assay on NCI-H522 lung it was 253 nM. In addition, the TGI was found to be 6070 nM with HCT-15 colon; 524 nM in the assay with COLO 205 colon; 519 nM in the assay on HL-60(TB) leukemia; 1020 nM in the assay on NCI-H23 lung; 2530 nM with CAKI-1 renal; 364 nM in the assay on SK-MEL-5 melanoma. Also, the TGI with BT-549 breast was determined as 1280 nM; in the assay on RXF 393 renal it was 583 nM; with CCRF-CEM leukemia, 7570 nM; in the assay with NCI-H522 lung, 801 nM.
On to `Nc1nc2c(C(=O)NCc3cccs3)nnn2c2cccc(Cl)c12`, for which the TGI in the assay with HCT-15 colon, in the assay with COLO 205 colon, in the assay with HL-60(TB) leukemia, in the assay on NCI-H23 lung, in the assay with CAKI-1 renal and with SK-MEL-5 melanoma was > 100000 nM in each case. For the same molecule, the TGI in the assay on BT-549 breast is > 100000 nM; with RXF 393 renal, > 100000 nM; with CCRF-CEM leukemia, 55600 nM; with NCI-H522 lung it was > 100000 nM.
For the molecule `CC(=O)OC12C=C(C)C(C(C)C1)C1C(=O)N(CCN3CCCCC3)C(=O)C12` (stereo unspecified), the GI50 in the assay on HCT-15 colon, with COLO 205 colon, with HL-60(TB) leukemia, with NCI-H23 lung, in the assay on CAKI-1 renal and in the assay with SK-MEL-5 melanoma was > 50000 nM each time. Besides, the GI50 in the assay on BT-549 breast is > 50000 nM; with RXF 393 renal, 19900 nM; with CCRF-CEM leukemia, > 50000 nM; in the assay on NCI-H522 lung, > 50000 nM. In addition, the TGI in the assay on HCT-15 colon, with COLO 205 colon, in the assay on HL-60(TB) leukemia, in the assay with NCI-H23 lung, in the assay on CAKI-1 renal and in the assay on SK-MEL-5 melanoma was > 50000 nM throughout. Also, the TGI in the assay on BT-549 breast, with RXF 393 renal, with CCRF-CEM leukemia and with NCI-H522 lung was > 50000 nM in each case.
Regarding `COc1ccccc1S(=O)(=O)Nc1ccc2c3c(cc(CCC(=O)NCCCCNc4cccc5c4C(=O)N(C4CCC(=O)NC4=O)C5=O)cc13)C(=O)N2C` (stereo unspecified), the GI50 in the assay on COLO 205 colon is 459 nM; in the assay with HL-60(TB) leukemia, 27.3 nM; in the assay on NCI-H23 lung, 17000 nM; with CAKI-1 renal, 2310 nM; with SK-MEL-5 melanoma, 982 nM; in the assay on BT-549 breast, 87.4 nM. Also, the GI50 with RXF 393 renal was 862 nM; with CCRF-CEM leukemia, 31.5 nM; with NCI-H522 lung, 4220 nM. In addition, the TGI in the assay on COLO 205 colon was 8080 nM; in the assay on NCI-H23 lung it was > 100000 nM; with CAKI-1 renal, > 100000 nM; in the assay with SK-MEL-5 melanoma, 3320 nM; in the assay with BT-549 breast, 1560 nM; in the assay on RXF 393 renal it was 4500 nM. The TGI in the assay with NCI-H522 lung was > 100000 nM.
